Data published in publication PMC10714399, “Open Source Antibiotics: Simple Diarylimidazoles Are Potent against Methicillin-Resistant Staphylococcus aureus” (ACS Infectious Diseases, 2023).
Converted amounts (≈) assume the structure as drawn. Like-named read-outs stand apart in the source and are kept apart here.

Key:
[1] = In vitro metabolic stability, human liver microsomes (Monash); format: in vitro ADME; settings: for CLint, in vitro / T1/2: NADPH
Method: (§1) The metabolic stability assay was performed by incubating each test compound with a suspension of liver microsomes (0.4 mg/mL protein, 1 μM substrate, 37 °C). Microsomes were purchased from XenoTech. The metabolic reaction was initiated by the addition of an NADPH-regenerating system and quenched at various time points over a 60 min incubation by the addition of acetonitrile containing metolazone as an internal standard. Control samples (containing no NADPH) were included (quenched at 2, 30, and 60 min) to monitor for potential degradation in the absence of cofactor. […]
(§2) d) In Vitro Metabolic Stability
(§3) The metabolic stability assay was performed by incubating each test compound with a suspension of liver
(§4) microsomes (0.4 mg/mL, 37°C). The metabolic reaction was initiated by the addition of an NADPH-regenerating
(§5) system and quenched at various time points over a 60 minute incubation by the addition of acetonitrile containing
(§6) metolazone as internal standard. Control samples (containing no NADPH) were included (quenched at 2, 30 and 60
(§7) minutes) to monitor for potential degradation in the absence of cofactor.
(§8) The human liver microsomes used in this experiment were supplied by XenoTech, lot # 1710084.The rat liver
(§9) microsomes used in this experiment were supplied by XenoTech, lot # 1610290. Microsomal incubations were
(§10) performed at a substrate concentration of 1 µM.
(§11) Data analysis and interpretation:
(§12) Substrate depletion as a function of time was analysed as described by Obach (1999) Drug Metab. Dispos., 27:1350-
(§13) 1359. Intrinsic clearance (CLint) values were classified at the limits of low and high clearance bands based on a
(§14) rearrangement of the well stirred model of hepatic elimination. It should be noted that the potential impact of
(§15) compound binding (either in microsomes or in blood) on the relationship between in vitro intrinsic clearance and
(§16) hepatic clearance in vivo has not been accounted for in these studies.
(§17) In Vitro Intrinsic Clearance
(§18) Species (µL/min/mg protein)
(§19) Low Clearance High Clearance
(§20) Experimental results are tabulated on the following page(s).
(§21) (1 picture or pasted object on this page, not shown here)

[2] = In vitro metabolic stability, rat liver microsomes (Monash); format: in vitro ADME; settings: for CLint, in vitro / T1/2: NADPH
Method: as §1, §2, §3, §4, §5, §6, §7, §8, §9, §10, §11, §12, §13, §14, §15, §16, §17, §18, §19, §20, §21

[3] = Distribution coefficient estimation using chromatography, gLogD (Monash); format: physicochemical
Description: Partition coefficient values (LogD) of the test compounds were estimated at pH 7.4 by the correlation of their chromatographic retention properties against the characteristics of a series of standard compounds with known partition coefficient values. The method employed is a gradient HPLC-based derivation of the method developed by Lombardo.[42] […]
c) Distribution Coefficient Estimation using Chromatography (gLogDpH)
Partition coefficient values (LogD) of the test compounds were estimated at pH 7.4 by correlation of their
chromatographic retention properties against the characteristics of a series of standard compounds with known
partition coefficient values. […]
(§22) In Vitro Intrinsic Clearance […]
as §20, §21

[4] = system: Staphylococcus aureus ATCC 43300 MRSA; test: CO-ADD antibacterial assay (growth inhibition, MIC), MRSA; format: cell-based; settings: read-out: MRSA MIC (CO-ADD)
Method: Hit Confirmation of active compounds by whole cell growth inhibition assays was conducted as an 8-point dose response to determine the Minimum Inhibitory Concentration (MIC), in duplicate (n=2). The inhibition of growth is measured against those microorganisms that […]
Included in the Hit Confirmation were 5 bacteria: Escherichia coli, Klebsiella pneumoniae, Acinetobacter baumannii, Pseudomonas aeruginosa and Staphylococcus aureus, and 2 fungi Candida albicans and Cryptococcus neoformans. […]
Assay Parameters Bacteria Fungi HEK293 Haemolysis […]
Duplicate (n=2) Duplicate (n=2) Duplicate (n=2) Duplicate (n=2)
QC Control MIC: Control MIC: Control CC50: Control HC10:
Non-Binding Non-Binding TC, 384-well Polypropylene
Plates Surface (NBS), Surface (NBS), black wall/clear 384-well and 384-well plate 384-well plate bottom polystyrene 384-
Cation-adjusted Yeast Nitrogen DMEM
Media Mueller Hinton Base supplemented 0.9% NaCl
Hit Confirmation outcomes are detailed in individual Project reports, personalised for each Project Submission for each CO-ADD user.
Please see your data sheet with file extension P0XXX_HC_data.xlsx, for example CO-ADD Project P0100, P0100_HC_data.xlsx
Study: HC_data ID: HC-Procedures & Materials
Date: Last updated June 2018 Confidential Page 3 of 11
as §21
Samples were provided by the collaborator and stored frozen at -20 °C. Samples were prepared in DMSO and water to a final testing concentration of 32 µg/mL or 20 µM (unless otherwise indicated in the data sheet) and serially diluted 1:2 fold for 8 times. Each sample concentration was prepared in 384-well plates, non-binding surface plate (NBS; Corning 3640) for each bacterial/fungal strain, tissue-culture treated (TC-treated; Corning 3712/3764) black for mammalian cell types and polypropylene 384-well (PP; Corning 3657) for haemolysis assays, all in duplicate (n=2), and keeping the final DMSO concentration to a maximum of 0.5%. All the sample preparation was done using liquid handling robots. […]
detailed in the Data sheet for the individual Project.
All bacteria were cultured in Cation-adjusted Mueller Hinton broth (CAMHB) at 37 °C overnight. A sample of each culture was then diluted 40-fold in fresh broth and incubated at 37 °C for 1.5-3 h. The resultant mid-log phase cultures were diluted (CFU/mL measured by OD600), then added to each well of the compound containing plates, giving a cell density of 5×10^5 CFU/mL and a total volume of 50 µL. All the plates were covered and incubated at 37 °C for 18 h without shaking.
Inhibition of bacterial growth was determined measuring absorbance at 600 nm (OD600), using a Tecan M1000 Pro monochromator plate reader. The percentage of growth inhibition was calculated for each well, using the negative control (media only) and positive control (bacteria without inhibitors) on the same plate as references.
The percentage of growth inhibition was calculated for each well, using the negative control (media only) and positive control (bacteria without inhibitors) on the same plate. The MIC […]
by an inhibition ≥ 80%. In addition, the maximal percentage of growth inhibition is reported as DMax, indicating any compounds with partial activity.
Date: Last updated June 2018 Confidential Page 5 of 11
Material Code Brand/Supplier Cat No.
Compound preparation plate, Polypropylene PP Corning 3364
Assay Plates – Antimicrobial
Non-binding surface NBS 384w Corning 3640
Assay Plates – Cytotoxicity
Tissue culture treated Black/Clear bottom 384w Corning 3712
Assay Plates - Haemolysis PP-Haem Corning 3657 […]
Growth media - bacteria CAMHB Bacto Laboratories 212322
Culture agar - fungi YPD Becton Dickinson 242720
Growth media - fungi YNB Becton Dickinson 233520
Resazurin Sigma-Aldrich R7017
Dulbecco's Modified Eagle Medium DMEM Life Technologies 11995-073
Foetal Bovine Serum FBS Bovogen FFBS-500
0.9% NaCl Saline Baxter AHF7124
Sample Name Sample ID MW Conc. Solvent Source […]

[5] = Mouse liver microsome (MLM) metabolic stability (UNC); format: in vitro ADME
Description: Supplement id3c00286_si_002.xlsx, sheet "Series 2 Data" | column: MLM Clint (mL/min/kg) (UNC); MLM t1/2 (min) (UNC); MLM E (UNC)

[6] = Kinetic solubility estimation using nephelometry (Monash); format: physicochemical; settings: for solubility kinetic at 30 min: kinetic from dmso stock; for Sol 2.0: approx pH 2.0
Method: Compound in DMSO was spiked into either pH 6.5 phosphate buffer or 0.01 M HCl (approximately pH 2.0) with the final DMSO concentration being 1%. […]
b) Kinetic Solubility Estimation using Nephelometry (SolpH)
Compound in DMSO was spiked into either pH 6.5 phosphate buffer or 0.01 M HCl (approx pH 2.0) with the final
DMSO concentration being 1%. After 30 minutes had elapsed, samples were then analysed via Nephelometry to
determine a solubility range. See Bevan and Lloyd (2000) Anal Chem, 72:1781-1787. […]
as §22, §20, §21

[7] = system: MRC-5SV2 (human lung fibroblast cell line); test: Toxicity against MRC-5SV2; format: cell-based; settings: MRC5 cells
Method: (§23) ADME and toxicity for compounds were measured according to procedures outlined in the manuscript submitted in parallel to this one;2 other procedures were used for those compounds analysed by Monash University (in vitro ADME) or UCL (toxicity), both described in the main

Aqueous solubility = format: physicochemical; settings: thermodynamic from solid; NEU; read-out: Aqueous Solubility (NEU)
[8] = system: Staphylococcus aureus NCTC 13373 (mecA-positive; methicillin-resistant); test: In vitro antibacterial activity, MIC (UCL School of Pharmacy assay), MRSA; format: cell-based; settings: Staphylococcus aureus, UCL; read-out: MRSA MIC (UCL)
Summary of the method: (§24)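 MIC determined over 32–0.03 μg/mL in 2-fold steps, with at most 2% DMSO, in isosensitest broth. Organisms were suspended in PBS to A600 0.1 (about 1 × 10^8 CFU/mL), diluted 1:100 and inoculated; vancomycin served as QC compound.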

[9] = Rat hepatocyte intrinsic clearance; format: in vitro ADME; settings: rat hepatocytes, NEU; read-out: Rat Hep CLint (NEU)
[10] = system: PMM (primary mouse macrophages); test: Toxicity against PMM; format: cell-based; settings: PMM
Method: as §23

[11] = Human plasma protein binding (PPB); format: in vitro ADME; settings: human plasma, NEU
THP1 = test: Toxicity against THP1; format: cell-based; settings: THP1 cells
Description: Supplement id3c00286_si_002.xlsx, sheet "Series 2 Data" | column: THP1 TC50 (uM)

U2OS = test: Toxicity against U2OS; format: cell-based; settings: U2OS cells
Description: Supplement id3c00286_si_002.xlsx, sheet "Series 2 Data" | column: U2OS TC50 (uM)

[12] = system: Enterococcus faecalis ATCC 51299 (vanA-positive; vancomycin-resistant); test: In vitro antibacterial activity, MIC (UCL), VRE; format: cell-based; settings: read-out: VRE MIC (UCL)
Summary of the method: as §24

[13] = Human liver microsome intrinsic clearance; format: in vitro ADME; settings: human liver microsomes, NEU; read-out: HLM CLint (NEU)

Question: What does the source list for `c1ccc(-c2nc3n(c2-c2ccc4c(c2)OCO4)CCS3)nc1` [OSA_000813]?
Answer: microsomal CLint at 1 µM ([1]; Monash, read-out: HLM Clint (Monash)): 37 µL/min/mg; half-life at 1 µM ([1]; Monash, read-out: HLM t1/2 (Monash)): 47 min; microsomal CLint at 1 µM ([2]; Monash, read-out: RLM Clint (Monash)): 74 µL/min/mg; half-life at 1 µM ([2]; Monash, read-out: RLM t1/2 (Monash)): 23 min; chromatographic logD ([3]; gradient HPLC retention against standard compounds, pH 7.4): 1.6; MIC [4]: 32 µg/mL (≈ 99 µM); MLM E (UNC) ([5]; mouse liver microsomes): 0.873; CLint scaled ([5]; mouse, liver microsomes): 619 mL/min/kg; half-life ([5]; mouse, liver microsomes, read-out: MLM t1/2 (UNC)): 9.08 min; solubility kinetic at 30 min ([6]; 0.01 M HCl, simulated gastric fluid, pH 2.0, read-out: Sol (pH 2.0) (Monash)): 25 to 50 µg/mL (≈ 77.3 to 155 µM); solubility kinetic at 30 min ([6]; pH 6.5 phosphate buffer, pH 6.5, aqueous buffer, read-out: Sol (pH 6.5) (Monash)): 12.5 to 25 µg/mL (≈ 38.7 to 77.3 µM)

Question: For `c1ccc(-c2nc3n(c2-c2ccc4occc4c2)CCC3)nc1` [UNC-ALM-DAI-27], which “CLint, in vitro” value [1] is on record?
Answer: 51 µL/min/mg protein

Question: And the T1/2 [1]?
Answer: 34 min

Question: What about the “CLint, in vitro” value [2] of the same molecule?
Answer: 72 µL/min/mg protein

Question: And the T1/2 [2]?
Answer: 24 min

Question: What about the “gLogD at pH 7.4” value [3] of the same molecule?
Answer: 1.9

Question: What about the “Sol 2.0” value ([6]; 0.01 M HCl) of the same molecule?
Answer: > 100 µg/mL

Question: What about the “Sol 6.5” value ([6]; pH 6.5 phosphate buffer) of the same molecule?
Answer: 25 to 50 µg/mL

Question: With `COc1ccn2c(Nc3ccccc3F)c(-c3cnn(C)c3)nc2c1` [OSA_000855] as the molecule, how does the “MRC5 TC50” value [7] read?
Answer: 64 µM

Question: And the solubility (Aqueous solubility)?
Answer: 22 µM (≈ 7.42 µg/mL)

Question: And the MIC [8]?
Answer: > 32 µg/mL

Question: And the hepatocyte CLint [9]?
Answer: 82.3 µL/min/1e6 cells

Question: What about the “PMM TC50” value [10] of the same molecule?
Answer: 64 µM

Question: What about the “Human PPB (NEU)” value [11] of the same molecule?
Answer: Low recovery,Unstable in plasma

Question: What about the “THP1 TC50” value (THP1) of the same molecule?
Answer: 50 µM

Question: What about the “U2OS TC50” value (U2OS) of the same molecule?
Answer: 50 µM

Question: What about the MIC [12] of the same molecule?
Answer: > 32 µg/mL

Question: What about the microsomal CLint [13] of the same molecule?
Answer: < 3 µL/min/mg

Question: What does the source list for `c1ccc(-c2nc3ccccn3c2-c2ccc3c(c2)OCO3)nc1` [UNC-ALM-DAI-18]?
Answer: CLint, in vitro [1]: 47 µL/min/mg protein; T1/2 [1]: 37 min; CLint, in vitro [2]: 99 µL/min/mg protein; T1/2 [2]: 18 min; gLogD at pH 7.4 [3]: 1.8; Sol 2.0 ([6]; 0.01 M HCl): > 100 µg/mL; Sol 6.5 ([6]; pH 6.5 phosphate buffer): 25 to 50 µg/mL
